Results from patent US20080146602A1, “Thienopyridine Derivatives, Production Method and Use Thereof” (TAKEDA PHARMACEUTICAL COMPANY LIMITED, priority 2004, published 2008).
Marks after values point to notes of the source that are not given here.

Tests used:
[1] = tested on: Adjuvant Arthritis in Rat; test: Effect on adjuvant arthritis in rat (footpad swelling suppression); assay type: in vivo; conditions: male Lewis rat, Freund's complete adjuvant; 0.3 mg/kg orally once a day for 14 days; edema volume of left hind paw, Day 14; n=6
Method: Effect on Adjuvant Arthritis in Rat
A male Lewis rat (7-week-old, Crea Japan Ltd.) was sensitized by an intracutaneous injection of 0.05 ml of Freund's complete adjuvant: 0.5% liquid paraffin suspension of dead tubercle bacillus) into the footpad of the right hind paw, and the test compound suspended in 0.5% methyl cellulose was orally administered once a day for 14 days. Immediately before sensitization (Day 0) and 14th day (Day 14), the edema volume of the left hind paw was measured by a plethysmometer (manufactured by Ugo Basile, Italy) and the footpad swelling suppression rate (%) relative to unsensitized rat was determined by the following formula.
The results are shown in mean ±S.E. of each group (n=6) and compared and detected by the Dunnett's method. In addition, less than 5% of the critical rate was taken as significant.

melting point [°C] | SMILES | Swelling suppression rate (%) [1]
282 to 283 | NC(=O)[C@H]1CCc2c(sc3nc(CN4C(=O)CSC4=O)c(Cl)c(-c4ccc(O)cc4)c23)C1 [Example 9, (7S)-3-Chloro-2-[(2,4-dioxo-1,3-thiazolidin-3-yl)methyl]-5,6,7,8-tetrahydro-4-(4-hydroxyphenyl)[1]benzothieno[2,3-b]pyridine-7-carboxamide] | –
– | COc1ccc(-c2c(Cl)c(CN3C(=O)COC3=O)nc3sc4c(c23)CC[C@H](C(N)=O)C4)cc1 [Example 4-2, (7S)-3-chloro-2-[(2,4-dioxo-1,3-oxazolidin-3-yl)methyl]-5,6,7,8-tetrahydro-4-(4-methoxyphenyl)[1]benzothieno[2,3-b]pyridine-7-carboxamide] | 82* %
– | COc1ccc(-c2c(Cl)c(CN3C(=O)CCC3=O)nc3sc4c(c23)CC[C@@H](C(N)=O)C4)cc1 (stereo in doubt) [Example 5-2, 3-chloro-2-[(2,5-dioxo-1-pyrrolidinyl)methyl]-5,6,7,8-tetrahydro-4-(4-methoxyphenyl)[1]benzothieno[2,3-b]pyridine-7-carboxamide] | 88* %
– | COc1ccc(-c2c(Cl)c(CN3C(=O)CSC3=O)nc3sc4c(c23)CC[C@@H](C(N)=O)C4)cc1 (stereo in doubt) [Example 6-2, 3-chloro-2-[(2,4-dioxo-1,3-thiazolidin-3-yl)methyl]-5,6,7,8-tetrahydro-4-(4-methoxyphenyl)[1]benzothieno[2,3-b]pyridine-7-carboxamide] | 87* %
299 to 300 | NC(=O)[C@H]1CCc2c(sc3nc(CN4C(=O)CCC4=O)c(Cl)c(-c4ccc(O)cc4)c23)C1 [Example 8, (7S)-3-Chloro-2-[(2,5-dioxo-1-pyrrolidinyl)methyl]-5,6,7,8-tetrahydro-4-(4-hydroxyphenyl)[1]benzothieno[2,3-b]pyridine-7-carboxamide] | –
